Measured values published in patent publication US11957696B2 (Propella Therapeutics, Inc., priority 2021, dated 2024).

Assays:
[1] = PK of single IM abiraterone decanoate in chemically castrated monkeys (abiraterone plasma); type: in vivo, cynomolgus monkeys; settings: single IM 10 mg/kg
[2] = Abiraterone plasma exposure from abiraterone decanoate formulations with and without benzyl benzoate; type: in vivo; settings: corn oil 70%, benzyl alcohol 10%, benzyl benzoate 20% compared with corn oil 90%, same dose, monkeys
Source text: In some embodiments, the abiraterone prodrug formulation can comprise a combination of benzyl alcohol and benzyl benzoate as cosolvents. In some embodiments, the benzyl alcohol can be present in an amount of about 0-20% (e.g., 0-15% or 0-10%, such as about 10%) of the solvent, and benzyl benzoate can be present in an amount of about 0-50% (e.g., 0-35% or 0-30%, such as about 20%) of the solvent, wherein the balance of the solvent can be any one or more of the pharmaceutically acceptable oil described herein, such as corn oil, castor oil, sesame oil, peanut oil, cottonseed oil, and/or Miglyol 812, etc.

LH = LH analysis (serum) in 13-week study; type: in vivo, cynomolgus monkeys; parameters: LH: unit not given here
Experimental: Sample Collection for LH Analysis (Serum): Blood samples (approximately 2.5 mL) were collected from all animals via the femoral vein for determination of the serum concentrations of LH. The animals were fasted prior to blood collection except one deviation.

[3] = Toxicokinetics of abiraterone decanoate and abiraterone in 13-week study; type: in vivo, cynomolgus monkeys; settings: for AUC(0-t) / Cmax: male, cynomolgus monkey, in vivo, im; for AUC(0-t): Abiraterone Decanoate plasma AUC0-[…] (mean); for Cmax: Abiraterone Decanoate plasma Cmax (mean)
Experimental: Toxicokinetic parameters were obtained for each animal on Days 1, 29, and 71. […] A single 144-hour sample was collected outside of the allowable window for timed collections from one Animal on Day 29 and the actual time for this time point was used in the toxicokinetic data analysis. Nominal time was used for graphic representation and concentration table generation. For each animal, the following toxicokinetic parameters were determined: maximum observed plasma concentration (Cmax), time of maximum observed plasma concentration (Tmax), and area under the plasma concentration-time curve (AUC).

CYP17 = molecular target: T1, CYP17 (Rattus norvegicus, UniProt P11715); assay: Serum steroid levels after single IV or IM injection in tissue uptake study; type: in vivo, strain CD [Crl:CD(SD)]; settings: rats
T1 construct: endogenous in cells; host or cells: live CD [Crl:CD(SD)] rats (in vivo)
T1 sequence (P11715 1-507): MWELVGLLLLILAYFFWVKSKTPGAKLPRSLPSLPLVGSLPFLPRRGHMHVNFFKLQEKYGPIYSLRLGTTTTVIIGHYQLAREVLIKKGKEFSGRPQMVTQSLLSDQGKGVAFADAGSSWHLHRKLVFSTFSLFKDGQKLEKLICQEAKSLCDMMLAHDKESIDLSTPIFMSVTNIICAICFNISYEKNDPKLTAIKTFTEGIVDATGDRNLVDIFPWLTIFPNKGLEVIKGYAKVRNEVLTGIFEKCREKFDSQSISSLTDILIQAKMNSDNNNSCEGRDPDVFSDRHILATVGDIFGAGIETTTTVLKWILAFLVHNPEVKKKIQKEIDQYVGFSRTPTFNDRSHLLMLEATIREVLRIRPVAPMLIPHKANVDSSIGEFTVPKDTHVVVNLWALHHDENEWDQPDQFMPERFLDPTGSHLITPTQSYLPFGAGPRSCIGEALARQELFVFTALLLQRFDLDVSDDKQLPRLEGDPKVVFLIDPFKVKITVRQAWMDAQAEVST
Source text: Vehicle for IM injection: Corn oil with 10% benzyl alcohol (w/v) and 20% benzyl benzoate (w/v). The study followed the protocols described below.
For serum steroid analysis, blood samples were collected from animals in each study group at predose and at terminal necropsy according to the following protocol. Animals were designated for 72 hr and 168 hr necropsy, the animals will be fasted overnight before scheduled blood collections. Plasma samples will be used for ACTH level analysis. Serum samples will be used for LH level analysis and steroid level analysis. Plasma samples will also be collected at various time points and be analyzed for abiraterone decanoate and abiraterone. Representative samples of tissues will be collected and snap frozen and analyzed. Lung, Liver, Adrenal glands, Prostate, Testes (Sample 1 and 2) and lymph nodes tissues will be collected. Lymph node(s) draining administration site(s): Inguinal (Groups 1-4) and Iliac (Groups 1 and 3 only). Lymph node, mandibular and Lymph node mesenteric tissues will also be collected.

[4] = DVS water uptake of abiraterone decanoate forms; type: physicochemical; settings: Forms A, B, and C
CYP17A1 = molecular target: T2, CYP17A1 (Macaca fascicularis, UniProt Q2XVA1); assay: PD (progesterone, cortisol, dihydrotestosterone, testosterone levels) in chemically castrated monkeys; type: in vivo, cynomolgus monkeys
T2 construct: endogenous in cells; host or cells: live male cynomolgus monkeys (in vivo; steroidogenic tissues)
T2 sequence (Q2XVA1 1-508): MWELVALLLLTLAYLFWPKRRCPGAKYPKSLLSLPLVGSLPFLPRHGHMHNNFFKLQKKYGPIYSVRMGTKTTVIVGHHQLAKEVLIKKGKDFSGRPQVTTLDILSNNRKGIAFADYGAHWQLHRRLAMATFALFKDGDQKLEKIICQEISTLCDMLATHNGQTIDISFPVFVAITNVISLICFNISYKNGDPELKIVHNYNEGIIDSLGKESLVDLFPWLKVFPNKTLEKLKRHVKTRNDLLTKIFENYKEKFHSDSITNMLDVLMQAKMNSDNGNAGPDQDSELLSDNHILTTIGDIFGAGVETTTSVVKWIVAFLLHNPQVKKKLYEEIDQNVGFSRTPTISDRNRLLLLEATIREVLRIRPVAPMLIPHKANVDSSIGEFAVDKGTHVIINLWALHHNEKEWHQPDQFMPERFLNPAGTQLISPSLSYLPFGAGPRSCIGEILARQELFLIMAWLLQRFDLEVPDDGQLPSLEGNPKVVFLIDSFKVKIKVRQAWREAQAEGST
Source text: The effects of administering dexamethasone and methylprednisolone acetate according to the schedule of this Example were also shown in FIGS. 5A, 5B, 5C, and 5D.

[5] = single intramuscular dose (90 mg/kg)

Question: What does the source list for `CCCCCCCCCC(=O)O[C@H]1CC[C@@]2(C)C(=CC[C@@H]3[C@@H]2CC[C@]2(C)C(c4cccnc4)=CC[C@@H]32)C1` [Abiraterone Decanoate, abiraterone decanoate]?
Answer: abiraterone in the plasma at Day 70 [1]: measurable; abiraterone plasma exposure [2]: much higher abiraterone plasma exposure; LH (LH; 20 mg/kg, N 4, Day 8): 1.67; LH (LH; 20 mg/kg, N 4, Day 15): 1.67; LH (LH; 20 mg/kg, N 4, Day 78): 5.67; LH (LH; 20 mg/kg, N 4, Day 85): 3.12; LH (LH; 60 mg/kg, N 4, Day 8): 2.78; LH (LH; 60 mg/kg, N 4, Day 15): 2.73; LH (LH; 60 mg/kg, N 4, Day 78): 7.12; LH (LH; 60 mg/kg, N 4, Day 85): 7.07; LH (LH; 200 mg/kg, N 6, Day 8): 1.98; LH (LH; 200 mg/kg, N 6, Day 15): 2.33; LH (LH; 200 mg/kg, N 6, Day 78): 5.04; LH (LH; 200 mg/kg, N 6, Day 85): 5.27; LH concentrations (LH; following abiraterone decanoate administration): no clear effects; plasma exposures to abiraterone (Cmax and AUC) compared with oral abiraterone acetate toxicology studies ([3]; IM administration, cynomolgus monkeys): lower than levels achieved in toxicology studies with abiraterone acetate; AUC(0-t) ([3]; 20 mg/kg): 888 ng·h/mL; AUC(0-t) ([3]; 60 mg/kg): 2040 ng·h/mL; AUC(0-t) ([3]; 200 mg/kg): 13100 ng·h/mL; Cmax ([3]; 200 mg/kg): 66.6 ng/mL; Cmax ([3]; cynomolgus, 20 mg/kg): 6.27 ng/mL; AUC(0-t) ([3]; cynomolgus, 60 mg/kg): 2190 ng·h/mL; Cmax ([3]; cynomolgus, 60 mg/kg): 15.8 ng/mL; AUC(0-t) ([3]; cynomolgus, 200 mg/kg): 12400 ng·h/mL; Cmax ([3]; cynomolgus, 200 mg/kg): 71.3 ng/mL; circulating androgen levels (androstenedione and testosterone) (CYP17; [5]): potent reductions; levels of progesterone and corticosterone (CYP17; [5]): increased; sustained reduction of testosterone (CYP17; single intramuscular dose, last time point tested): ≥ 168 h; DVS Max H2O uptake [4]: N/A-non-hygroscopic; PD effects relative to abiraterone plasma concentration (CYP17A1; 10 mg/kg dosing group): prolonged PD effects were observed even after abiraterone plasma concentration dropped below 1 ng/mL; progesterone, cortisol, dihydrotestosterone and testosterone levels (CYP17A1; single dose IM, all three doses): sustained increase of progesterone level and reduction of cortisol, dihydrotestosterone, and testosterone level; duration of CYP17A1 inhibition (CYP17A1; single dose IM, all three doses (10, 30, 100 mg/kg)): ≥ 70 days
